Laboratory results reported in ChEMBL document CHEMBL5291721, “A preclinical secondary pharmacology resource illuminates target-adverse drug reaction associations of marketed drugs” (Nat Commun, 2023).

Key:
[1] = target: Voltage-dependent L-type calcium channel subunit alpha-1C (Rattus norvegicus, UniProt P22002); format: functional
[2] = target: T1, 5-hydroxytryptamine receptor 1A (Homo sapiens, UniProt P08908); format: functional, cell-based
T1 sequence (P08908 whole entry): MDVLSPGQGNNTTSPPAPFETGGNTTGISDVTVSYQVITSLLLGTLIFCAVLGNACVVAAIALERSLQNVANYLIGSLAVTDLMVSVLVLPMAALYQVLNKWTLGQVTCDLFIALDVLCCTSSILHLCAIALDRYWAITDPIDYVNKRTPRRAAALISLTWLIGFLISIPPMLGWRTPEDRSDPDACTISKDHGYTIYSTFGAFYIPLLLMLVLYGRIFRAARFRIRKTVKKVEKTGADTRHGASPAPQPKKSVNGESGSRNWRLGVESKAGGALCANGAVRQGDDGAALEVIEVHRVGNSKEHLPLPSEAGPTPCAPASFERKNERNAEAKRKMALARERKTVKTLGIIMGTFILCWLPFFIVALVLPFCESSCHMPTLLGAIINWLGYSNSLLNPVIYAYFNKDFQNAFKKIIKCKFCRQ

Melanocortin receptor 3 = Melanocortin receptor 3 (Homo sapiens, UniProt P41968)
Chain of Melanocortin receptor 3 (P41968 whole entry): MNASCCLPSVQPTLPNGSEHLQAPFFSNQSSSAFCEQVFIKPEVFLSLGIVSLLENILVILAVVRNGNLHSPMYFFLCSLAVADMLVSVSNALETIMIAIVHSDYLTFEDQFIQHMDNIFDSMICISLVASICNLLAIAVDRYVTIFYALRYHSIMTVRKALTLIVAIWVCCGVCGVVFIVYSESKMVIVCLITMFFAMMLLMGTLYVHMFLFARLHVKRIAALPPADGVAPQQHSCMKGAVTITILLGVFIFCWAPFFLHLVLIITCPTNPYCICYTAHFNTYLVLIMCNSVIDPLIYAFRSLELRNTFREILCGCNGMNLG

Thromboxane A2 receptor = target: T2, Thromboxane A2 receptor (Homo sapiens, UniProt P21731)
T2 sequence (P21731 whole entry): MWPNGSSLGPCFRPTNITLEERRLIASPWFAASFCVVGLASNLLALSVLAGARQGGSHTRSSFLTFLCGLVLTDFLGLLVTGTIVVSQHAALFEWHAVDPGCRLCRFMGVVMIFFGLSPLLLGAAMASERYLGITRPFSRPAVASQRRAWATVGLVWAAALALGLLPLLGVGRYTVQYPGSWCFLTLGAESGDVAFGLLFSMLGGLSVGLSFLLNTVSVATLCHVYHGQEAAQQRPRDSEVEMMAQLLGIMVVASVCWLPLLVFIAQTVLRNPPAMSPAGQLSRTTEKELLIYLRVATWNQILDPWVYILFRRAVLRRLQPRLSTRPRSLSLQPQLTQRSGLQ

[3] = target: T3, Amine oxidase [flavin-containing] A (Homo sapiens, UniProt P21397); format: functional
T3 sequence (P21397 whole entry): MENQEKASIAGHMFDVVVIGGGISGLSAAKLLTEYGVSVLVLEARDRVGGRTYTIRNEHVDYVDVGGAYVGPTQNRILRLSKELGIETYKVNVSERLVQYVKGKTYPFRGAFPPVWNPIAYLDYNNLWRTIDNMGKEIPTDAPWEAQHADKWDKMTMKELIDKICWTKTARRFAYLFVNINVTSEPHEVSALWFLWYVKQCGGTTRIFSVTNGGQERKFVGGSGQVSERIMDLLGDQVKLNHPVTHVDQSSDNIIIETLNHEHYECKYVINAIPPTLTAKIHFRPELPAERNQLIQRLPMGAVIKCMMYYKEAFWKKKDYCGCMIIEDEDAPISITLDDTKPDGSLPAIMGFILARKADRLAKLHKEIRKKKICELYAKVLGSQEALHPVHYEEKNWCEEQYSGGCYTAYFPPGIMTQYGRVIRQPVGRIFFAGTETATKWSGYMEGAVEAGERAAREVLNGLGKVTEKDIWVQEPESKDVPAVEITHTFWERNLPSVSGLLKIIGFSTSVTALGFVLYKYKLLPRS

[4] = target: T4, Muscarinic acetylcholine receptor M1 (Homo sapiens, UniProt P11229); format: functional
T4 sequence (P11229 whole entry): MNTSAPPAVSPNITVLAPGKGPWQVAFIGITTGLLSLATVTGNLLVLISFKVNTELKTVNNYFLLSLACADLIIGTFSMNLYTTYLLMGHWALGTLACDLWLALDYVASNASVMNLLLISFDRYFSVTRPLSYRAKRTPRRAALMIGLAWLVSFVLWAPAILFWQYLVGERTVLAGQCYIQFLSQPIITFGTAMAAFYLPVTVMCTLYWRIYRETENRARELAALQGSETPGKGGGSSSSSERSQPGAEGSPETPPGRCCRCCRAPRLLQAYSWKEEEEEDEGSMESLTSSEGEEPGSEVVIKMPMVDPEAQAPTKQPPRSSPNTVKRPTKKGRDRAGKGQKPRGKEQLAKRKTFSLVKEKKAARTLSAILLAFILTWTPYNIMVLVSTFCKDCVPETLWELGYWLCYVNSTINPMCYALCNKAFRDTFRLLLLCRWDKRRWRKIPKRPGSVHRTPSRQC

Cannabinoid receptor 1 = Cannabinoid receptor 1 (Homo sapiens, UniProt P21554); format: functional, cell-based
Chain of Cannabinoid receptor 1 (P21554 whole entry): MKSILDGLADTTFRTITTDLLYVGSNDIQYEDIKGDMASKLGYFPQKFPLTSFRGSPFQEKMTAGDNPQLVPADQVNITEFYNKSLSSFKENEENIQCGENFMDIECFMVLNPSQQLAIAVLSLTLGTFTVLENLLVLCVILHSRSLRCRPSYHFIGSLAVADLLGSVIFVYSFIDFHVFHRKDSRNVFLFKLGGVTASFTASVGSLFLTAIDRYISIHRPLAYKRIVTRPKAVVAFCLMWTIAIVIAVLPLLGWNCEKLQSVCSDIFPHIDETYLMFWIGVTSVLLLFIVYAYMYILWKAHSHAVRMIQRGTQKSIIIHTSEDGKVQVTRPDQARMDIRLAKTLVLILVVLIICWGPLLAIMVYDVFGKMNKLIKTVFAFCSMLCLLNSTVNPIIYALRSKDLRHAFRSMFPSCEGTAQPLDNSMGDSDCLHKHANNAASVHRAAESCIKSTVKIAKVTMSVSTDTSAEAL

Estrogen receptor = target: T5, Estrogen receptor (Homo sapiens, UniProt P03372)
T5 sequence (P03372 whole entry): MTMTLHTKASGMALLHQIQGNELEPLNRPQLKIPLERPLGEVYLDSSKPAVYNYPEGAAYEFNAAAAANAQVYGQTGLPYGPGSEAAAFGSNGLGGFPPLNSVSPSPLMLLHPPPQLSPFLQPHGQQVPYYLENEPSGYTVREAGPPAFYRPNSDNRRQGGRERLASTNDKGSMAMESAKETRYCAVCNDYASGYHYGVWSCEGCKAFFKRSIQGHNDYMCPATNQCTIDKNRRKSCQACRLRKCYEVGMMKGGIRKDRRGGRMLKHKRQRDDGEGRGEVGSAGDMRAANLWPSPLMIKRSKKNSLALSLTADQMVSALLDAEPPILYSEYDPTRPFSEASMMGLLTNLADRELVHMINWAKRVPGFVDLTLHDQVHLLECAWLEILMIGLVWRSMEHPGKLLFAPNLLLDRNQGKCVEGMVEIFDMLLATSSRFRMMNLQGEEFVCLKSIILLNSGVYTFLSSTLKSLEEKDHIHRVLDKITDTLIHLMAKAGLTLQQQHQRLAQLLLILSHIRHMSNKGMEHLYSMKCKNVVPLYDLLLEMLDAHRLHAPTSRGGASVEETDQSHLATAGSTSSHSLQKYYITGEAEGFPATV
Also: assay procedure not described here.

Chain of Voltage-dependent L-type calcium channel subunit alpha-1C (P22002 whole entry): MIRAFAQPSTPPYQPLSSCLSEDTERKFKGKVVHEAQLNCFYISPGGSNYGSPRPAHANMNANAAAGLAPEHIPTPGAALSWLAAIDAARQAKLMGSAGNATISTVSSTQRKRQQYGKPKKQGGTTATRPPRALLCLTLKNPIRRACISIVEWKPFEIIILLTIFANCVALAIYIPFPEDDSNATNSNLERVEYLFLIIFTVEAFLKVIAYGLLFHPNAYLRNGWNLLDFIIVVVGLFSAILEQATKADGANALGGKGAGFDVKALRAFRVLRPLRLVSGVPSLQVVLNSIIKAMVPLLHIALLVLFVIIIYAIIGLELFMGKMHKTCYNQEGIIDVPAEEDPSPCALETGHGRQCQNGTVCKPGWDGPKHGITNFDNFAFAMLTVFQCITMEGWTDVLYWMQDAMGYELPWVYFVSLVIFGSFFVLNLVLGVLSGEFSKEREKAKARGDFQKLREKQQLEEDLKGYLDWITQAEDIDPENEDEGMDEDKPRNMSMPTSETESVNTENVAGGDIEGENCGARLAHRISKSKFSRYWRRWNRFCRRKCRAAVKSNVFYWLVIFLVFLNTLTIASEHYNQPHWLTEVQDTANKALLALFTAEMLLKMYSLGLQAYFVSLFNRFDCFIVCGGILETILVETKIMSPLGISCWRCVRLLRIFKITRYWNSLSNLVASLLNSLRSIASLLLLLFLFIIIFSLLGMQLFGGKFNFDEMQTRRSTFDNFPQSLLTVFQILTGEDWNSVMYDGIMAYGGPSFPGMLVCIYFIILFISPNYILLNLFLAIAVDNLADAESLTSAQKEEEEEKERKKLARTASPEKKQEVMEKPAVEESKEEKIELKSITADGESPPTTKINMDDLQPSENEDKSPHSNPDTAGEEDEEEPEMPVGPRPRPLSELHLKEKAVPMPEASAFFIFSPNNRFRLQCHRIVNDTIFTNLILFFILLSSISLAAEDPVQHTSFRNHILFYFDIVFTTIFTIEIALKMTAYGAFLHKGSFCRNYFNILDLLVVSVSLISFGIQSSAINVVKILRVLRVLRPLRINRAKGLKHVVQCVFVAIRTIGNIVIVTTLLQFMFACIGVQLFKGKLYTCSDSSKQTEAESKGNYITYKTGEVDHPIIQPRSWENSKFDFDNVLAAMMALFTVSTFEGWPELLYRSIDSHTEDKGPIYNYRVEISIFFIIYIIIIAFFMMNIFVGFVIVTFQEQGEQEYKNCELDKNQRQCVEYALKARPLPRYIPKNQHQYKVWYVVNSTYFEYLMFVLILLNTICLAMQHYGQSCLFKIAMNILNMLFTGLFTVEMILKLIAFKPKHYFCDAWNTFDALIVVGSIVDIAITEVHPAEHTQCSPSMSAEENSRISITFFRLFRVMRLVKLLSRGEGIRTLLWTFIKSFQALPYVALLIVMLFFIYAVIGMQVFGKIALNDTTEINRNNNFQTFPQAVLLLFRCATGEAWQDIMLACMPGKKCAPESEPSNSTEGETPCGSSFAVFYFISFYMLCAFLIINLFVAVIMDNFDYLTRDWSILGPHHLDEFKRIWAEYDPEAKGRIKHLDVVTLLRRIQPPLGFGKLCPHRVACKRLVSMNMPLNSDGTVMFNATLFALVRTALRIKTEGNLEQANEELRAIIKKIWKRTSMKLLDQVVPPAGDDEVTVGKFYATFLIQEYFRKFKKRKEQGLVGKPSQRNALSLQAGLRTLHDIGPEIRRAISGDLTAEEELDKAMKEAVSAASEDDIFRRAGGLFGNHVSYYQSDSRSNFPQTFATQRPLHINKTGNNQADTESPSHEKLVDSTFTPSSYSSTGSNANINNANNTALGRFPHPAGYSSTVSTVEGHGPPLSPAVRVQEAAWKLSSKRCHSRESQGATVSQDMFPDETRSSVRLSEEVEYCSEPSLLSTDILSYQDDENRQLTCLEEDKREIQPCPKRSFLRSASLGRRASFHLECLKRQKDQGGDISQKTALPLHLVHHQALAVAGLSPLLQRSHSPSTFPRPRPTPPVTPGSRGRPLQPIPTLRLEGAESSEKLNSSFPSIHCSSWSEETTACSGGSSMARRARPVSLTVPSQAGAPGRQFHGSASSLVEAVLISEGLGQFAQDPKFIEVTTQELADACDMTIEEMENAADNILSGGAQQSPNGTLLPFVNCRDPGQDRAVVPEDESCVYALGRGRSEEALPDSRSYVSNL

| Structure (SMILES) | AC50 [1] [µM] | AC50 [2] [µM] | AC50 (Melanocortin receptor 3) [µM] | AC50 (Thromboxane A2 receptor) [µM] | AC50 [3] [µM] | AC50 [4] [µM] | AC50 (Cannabinoid receptor 1) [µM] | AC50 (Estrogen receptor) [µM] |
| --- | --- | --- | --- | --- | --- | --- | --- | --- |
| C[C@](N)(Cc1ccc(O)c(O)c1)C(=O)O [METHYLDOPA] | > 10 | > 10 | > 10 | > 10 | > 10 |  |  |  |
| CCCCc1ncc(/C=C(\Cc2cccs2)C(=O)O)n1Cc1ccc(C(=O)O)cc1 [EPROSARTAN] | > 10 | > 10 | > 10 | > 10 | > 10 | > 10 | > 30 |  |
| CC(C)C(=O)c1c(C(C)C)nn2ccccc12 [IBUDILAST] | > 30 |  | > 30 | > 30 |  | > 30 | > 30 |  |
| O=C(O)/C=C/c1ccc(Cn2ccnc2)cc1 [OZAGREL] | > 30 | > 30 | > 30 | > 30 | > 30 | > 30 | > 30 |  |
| C#C[C@]1(O)CC[C@H]2[C@@H]3CCc4cc(OC5CCCC5)ccc4[C@H]3CC[C@@]21C [QUINESTROL] | > 10 | > 10 | > 10 | > 10 | > 10 | > 10 |  |  |
| COc1ccc(-c2ccc3cc(C(=O)O)ccc3c2)cc1C12CC3CC(CC(C3)C1)C2 | 1.5 | > 30 | > 30 | > 30 | > 30 | > 30 | > 30 |  |
| CCN(CC)C(=O)N[C@H]1C[C@@H]2c3cccc4[nH]cc(c34)C[C@H]2N(C)C1 [TERGURIDE] |  |  | > 30 |  | > 30 | > 30 | > 30 |  |
| COc1ccc(CCN(C)CCCC(C#N)(c2cc(OC)c(OC)c(OC)c2)C(C)C)cc1OC (stereo not given) [GALLOPAMIL] |  | 11 | > 30 | > 30 | > 30 | > 30 | > 30 |  |
| Nc1nc(N)nc(-c2cc(Cl)ccc2Cl)n1 [IRSOGLADINE] |  |  | > 30 | > 30 | > 30 |  | > 30 |  |
| C/C(O)=C(\C#N)C(=O)Nc1ccc(C(F)(F)F)cc1 [TERIFLUNOMIDE] |  | > 30 | > 30 |  | 4.9 | > 30 | > 30 |  |
| CCc1c(Cl)c(O)c(Cl)c(O)c1C(=O)O[C@H]1[C@H](O)[C@H](OC)[C@H](OC/C2=C\C=C\C[C@H](O)/C(C)=C/[C@H](CC)[C@@H](O[C@@H]3OC(C)(C)[C@@H](OC(=O)C(C)C)[C@H](O)[C@@H]3O)/C(C)=C/C(C)=C/C[C@@H]([C@@H](C)O)OC2=O)O[C@@H]1C [FIDAXOMICIN] | > 10 |  | > 30 | > 30 | > 30 | > 30 |  | > 30 |
| CNS(=O)(=O)Cc1ccc2[nH]cc(CCN(C)C)c2c1 | > 10 |  | > 30 | > 30 | > 30 |  | > 30 |  |
| CCCN(CCC)C(=O)C(CCC(=O)O)NC(=O)c1ccccc1 (stereo not given) [PROGLUMIDE] | > 10 | > 10 | > 30 | > 30 | > 30 |  |  |  |
| N#Cc1ccc([C@H]2CCc3cncn32)c(F)c1 [OSILODROSTAT] | > 10 |  | > 10 | > 10 |  | > 10 |  |  |
| NCC(=O)CCC(=O)O [AMINOLEVULINIC ACID] |  |  | > 30 | > 30 | > 30 | > 30 | > 30 |  |
| CCCc1nc(C(C)(C)O)c(C(=O)OCc2oc(=O)oc2C)n1Cc1ccc(-c2ccccc2-c2nnn[nH]2)cc1 [OLMESARTAN MEDOXOMIL] | > 10 | > 10 | > 50 | > 50 | > 10 | > 10 | > 30 |  |
| O=C(NCCNCC(O)COc1ccc(O)cc1)N1CCOCC1 (stereo not given) [XAMOTEROL] |  | > 30 | > 30 | > 30 | > 30 | > 30 | > 30 |  |
| Cc1cccc(C(C)c2cnc[nH]2)c1C (stereo not given) [MEDETOMIDINE] | > 30 | > 30 | > 30 | > 30 | > 30 | > 30 |  |  |
| CNC(C)CCC=C(C)C (stereo not given) [ISOMETHEPTENE] |  |  | > 30 | > 30 |  |  |  |  |
| CC(Oc1c(Cl)cccc1Cl)C1=NCCN1 (stereo not given) [LOFEXIDINE] | > 30 |  | > 30 | > 30 | > 30 | > 30 |  |  |
| C[C@]1(O)CC[C@H]2[C@@H]3CCC4=CC(=O)CC[C@]4(C)[C@@]3(F)[C@@H](O)C[C@@]21C [FLUOXYMESTERONE] | > 10 | > 10 | > 10 | > 10 | > 30 | > 30 |  |  |
| CC(=O)O[C@H]1CC[C@@]2(C)C(=CC[C@@H]3[C@@H]2CC[C@]2(C)C(c4cccnc4)=CC[C@@H]32)C1 [ABIRATERONE ACETATE] |  |  | > 30 | > 30 | > 30 | > 30 | > 30 |  |
| C[C@]12CC[C@H]3[C@@H](CCC4=CC(=O)CC[C@@]43C)[C@@H]1CC[C@@H]2O [TESTOSTERONE] | > 10 | > 10 | > 10 | > 10 | > 10 |  |  |  |
| Cn1c(=O)c2c(ncn2CC2OCCO2)n(C)c1=O [DOXOFYLLINE] | > 30 | > 30 | > 30 | > 30 | > 30 |  | > 30 |  |
| O=C(NCCN1CCOCC1)c1ccc(Cl)cc1 [MOCLOBEMIDE] | > 10 | > 10 | > 10 | > 10 |  |  |  |  |
| CCCC(=O)O[C@]1(C(=O)CO)CC[C@H]2[C@@H]3CCC4=CC(=O)CC[C@]4(C)[C@H]3[C@@H](O)C[C@@]21C [HYDROCORTISONE BUTYRATE] | > 10 | > 10 | > 10 | > 10 | > 10 | > 10 |  |  |
| O=C(O)CCCCCCCC(=O)O [AZELAIC ACID] | > 10 | > 10 | > 10 | > 10 | > 10 | > 10 |  |  |
